Source: patent US12516388B2, “Biosensors for polyketide extender units and uses thereof” (NORTH CAROLINA STATE UNIVERSITY, priority 2019, dated 2026)

What was measured:
FapR [1] = target: T1, FapR (Bacillus subtilis, UniProt O34835); conditions: previously reported; cited from earlier work
Target sequence in this assay (O34835 whole entry): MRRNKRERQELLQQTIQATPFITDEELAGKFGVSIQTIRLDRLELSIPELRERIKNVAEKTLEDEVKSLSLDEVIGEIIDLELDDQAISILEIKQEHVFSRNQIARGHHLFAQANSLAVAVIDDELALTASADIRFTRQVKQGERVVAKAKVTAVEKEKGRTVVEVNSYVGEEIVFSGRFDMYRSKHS

FapR [2] = target: T1, FapR; test: Cell-free transcription-translation (TX-TL) FapR/T7-fapO-sfGFP assay; format: biochemical, B. subtilis; design: made in house; host or cells: E. coli BL21(DE3); conditions: for effector of FapR as judged by cell-free fluorescence / fluorescence response (de-repression of FapR/T7-fapO-sfGFP) compared among thioesters: each thioester at fixed concentration (150 μM)
Excerpt: To this end, the reporter module of the FapR 2H8 biosensor was cloned into pET28a, replacing the typical lacO site controlling the T7 promoter with a single fapO binding site upstream of the sfGFP gene, producing pET28a-T7-fapO-sfGFP (FIG. 5C). Each α-carboxyacyl-CoA was generated enzymatically from the corresponding malonic acid and CoA using the wild-type malonyl-CoA synthetase MatB or the engineered MatB variant, T207G/M306I. Next, the response of the cell-free TX-TL biosensor assay was evaluated by using various concentrations of MatB-generated native effector, mCoA, along with a fixed amount of purified FapR and T7-fapO-sfGFP. […] In addition, the maximum fluorescence signal was ˜15-fold greater than that in the absence of mCoA. Furthermore, to account for potential inhibition of the cell-free biosensor by the MatB reaction mixture, the FapR system was also assayed using a commercial standard of mCoA.
Dose-response analysis of the cell-free TX-TL FapR assay. A premixed solution for cell-free transcription-translation reactions was purchased from New England Biolabs (PURExpress In Vitro Protein Synthesis Kit). To a PCR tube on ice were added (in the order shown): 4 μL Solution A, 3 μL Solution B, 2.5 μM FapR, 250 nM T7-fapO-sfGFP and 0-150 μM of MatB-generated or commercial mCoA in a total volume of 10 μL. In parallel, control reactions in the absence of thioester were assembled by using boiled MatB in the presence of malonic acid. The reaction was incubated for 16 h at 37° C. and then diluted with PBS buffer to give a final total volume of 50 μL.
Cell-Free Characterization of FapR Promiscuity. A commercial kit for cell-free transcription-translation reactions was purchased from New England Biolabs (PURExpress In Vitro Protein Synthesis Kit). To a PCR tube on ice were added (in the order shown): 4 μL Solution A, 3 μL Solution B, 2.5 μM FapR, 250 nM T7-fapO-sfGFP and 150 μM of MatB-generated acyl-CoA or mmSNAC in a total volume of 10 μL (FIG. 9). In parallel, control reactions in the absence of thioester were assembled by using boiled MatB. The reaction was incubated for 16 h at 37° C. and then diluted with PBS buffer to give a final total volume of 50 μL.
Target sequence in this assay (O34835 other isoform, or with tags, fused parts or gaps): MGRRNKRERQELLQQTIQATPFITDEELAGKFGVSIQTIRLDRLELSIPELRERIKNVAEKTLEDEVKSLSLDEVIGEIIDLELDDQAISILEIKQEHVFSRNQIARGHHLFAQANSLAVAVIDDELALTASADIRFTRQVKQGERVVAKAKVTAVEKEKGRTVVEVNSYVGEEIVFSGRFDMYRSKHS

FapR-fapO complex = target: T2, FapR-fapO complex (Bacillus subtilis, UniProt O34835); test: Electrophoretic mobility shift assay of FapR and fapO; format: binding, B. subtilis; conditions: titrated against FapR, 40 bp fapO fragment; read-out: concentration at which half of the DNA would be bound
T2 construct: made in house; host or cells: E. coli BL21(DE3)
T2 sequence (O34835 other isoform, or with tags, fused parts or gaps): as above
Protocol: Next, the cell-free FapR biosensor was assayed with each α-carboxyacyl-CoA at a fixed concentration (150 μM). […] This robust activity of pgmCoA is due in part to the increased rigidity of the alkyne side-chain or additional interactions of the alkynyl […] with the FapR ligand-binding site, with the […] side-chain of the nearby Phe99 (FIG. 5A). […] To provide further evidence that FapR is de-repressed by derivatives of mCoA, FapR was tested in vitro for DNA-binding and release by electrophoretic mobility shift assay (EMSA) in the presence of mCoA or mmCoA. Using purified wild-type FapR protein, EMSA was run with a 40 bp DNA fragment containing the fapO binding site (FIG. 7).
Electrophoretic mobility shift assay. The fapO oligonucleotides 5′-[…]-3′ (SEQ ID NO:30) and 5′-[…]-3′ (SEQ ID NO:31) were annealed per standard procedure. Briefly, the two oligos were added to a final concentration of 10 μM each in annealing buffer (19 mM Tris, pH 7.5, 50 mM NaCl, 1 mM EDTA) and heated to 95° C. for 2 minutes before cooling to 25° C. at a rate of −1° C. min^−1. […] Reactions were then analyzed by electrophoresis on a 6% PAGE gel at 220 V. The gel was stained with SYBR Green I and imaged on a Typhoon FLA 7000.

| SMILES | effector status for FapR (FapR [1]) | effector of FapR as judged by cell-free fluorescence (FapR [2]; FIG. 5D) | fluorescence response (de-repression of FapR/T7-fapO-sfGFP) compared among thioesters (FapR [2]; FIG. 5D) | also measured |
| --- | --- | --- | --- | --- |
| CC(C)(COP(=O)(O)OP(=O)(O)OC[C@H]1O[C@@H](n2cnc3c(N)ncnc32)[C@H](O)[C@@H]1OP(=O)(O)O)[C@@H](O)C(=O)NCCC(=O)NCCSC(=O)CCC(=O)O [succinyl-CoA] | non-effectors | – | – | – |
| C#CCC(C(=O)O)C(=O)SCCNC(=O)CCNC(=O)[C@H](O)C(C)(C)COP(=O)(O)OP(=O)(O)OC[C@H]1O[C@@H](n2cnc3c(N)ncnc32)[C@H](O)[C@@H]1OP(=O)(O)O (stereo partly drawn) [pgmCoA, propargylmalonyl-CoA] | – | identified as effectors | indistinguishable from that of mCoA and mmCoA | – |
| CC(C)(COP(=O)(O)OP(=O)(O)OC[C@H]1O[C@@H](n2cnc3c(N)ncnc32)[C@H](O)[C@@H]1OP(=O)(O)O)[C@@H](O)C(=O)NCCC(=O)NCCSC(=O)CC(=O)O [mCoA, malonyl-CoA] | – | – | – | maximum fluorescence signal relative to absence of mCoA (FapR [2]; 0-150 μM mCoA): ~15 fold; concentration range with linear fluorescence output of the cell-free biosensor (FapR [2]; MatB-generated mCoA, 2.5 μM FapR, 250 nM T7-fapO-sfGFP): up to 150 μM; fluorescence output, MatB-generated versus commercial mCoA (FapR [2]; dose-response, FIG. 6): no significant difference; EC50 (FapR-fapO complex): 200 µM |
| CC(C(=O)O)C(=O)SCCNC(=O)CCNC(=O)[C@H](O)C(C)(C)COP(=O)(O)OP(=O)(O)OC[C@H]1O[C@@H](n2cnc3c(N)ncnc32)[C@H](O)[C@@H]1OP(=O)(O)O (stereo partly drawn) [mmCoA, methylmalonyl-CoA] | – | – | statistically indistinguishable from that with the native ligand, mCoA | – |
| CC(=O)SCCNC(=O)CCNC(=O)[C@H](O)C(C)(C)COP(=O)(O)OP(=O)(O)OC[C@H]1O[C@@H](n2cnc3c(N)ncnc32)[C@H](O)[C@@H]1OP(=O)(O)O [acetyl-CoA] | non-effectors | – | – | – |
| CCCCC(C(=O)O)C(=O)SCCNC(=O)CCNC(=O)[C@H](O)C(C)(C)COP(=O)(O)OP(=O)(O)OC[C@H]1O[C@@H](n2cnc3c(N)ncnc32)[C@H](O)[C@@H]1OP(=O)(O)O (stereo partly drawn) [bmCoA, butylmalonyl-CoA] | – | identified as effectors | poorest effectors | – |
| CCCC(=O)SCCNC(=O)CCNC(=O)[C@H](O)C(C)(C)COP(=O)(O)OP(=O)(O)OC[C@H]1O[C@@H](n2cnc3c(N)ncnc32)[C@H](O)[C@@H]1OP(=O)(O)O [butyryl-CoA] | non-effectors | – | – | – |
| CC(=O)NCCSC(=O)C(C)C(=O)O (stereo not drawn) [mmSNAC] | – | determined to be an effector | – | de-repression activity relative to the corresponding CoA thioester (FapR [2]; 150 μM, fluorescence assay, FIG. 5D): ~50% |
| CCC(=O)SCCNC(=O)CCNC(=O)[C@H](O)C(C)(C)COP(=O)(O)OP(=O)(O)OC[C@H]1O[C@@H](n2cnc3c(N)ncnc32)[C@H](O)[C@@H]1OP(=O)(O)O [propionyl-CoA] | non-effectors | de-repression was not observed | – | – |
| CCC(C(=O)O)C(=O)SCCNC(=O)CCNC(=O)[C@H](O)C(C)(C)COP(=O)(O)OP(=O)(O)OC[C@H]1O[C@@H](n2cnc3c(N)ncnc32)[C@H](O)[C@@H]1OP(=O)(O)O (stereo partly drawn) [emCoA, ethylmalonyl-CoA] | – | identified as effectors | poorest effectors | – |
